Source: a melting point compilation (Tetko et al.; mined from patent text by program, amines drawn as free bases though some values may be those of a salt)

Row | Compound | melting point [°C]
1 | O=[N+]([O-])c1cc([N+](=O)[O-])c(Nc2ccc3ccccc3c2[N+](=O)[O-])c(C(F)(F)F)c1 | 213 to 215
2 | COC(=O)NC12CC=CCC1CSc1ccccc12 (stereo not given) | 150 to 152
3 | Nc1nc(-c2ccc([N+](=O)[O-])cc2)c[nH]1 | 235 to 240
4 | COC(=O)/C=C/n1cnc2ccc(OC(C)C)cc2c1=O | 156 to 158
5 | N#CCn1nnnc1S | 116 to 118
6 | Cn1c(SSc2c(C(=O)Nc3ccccc3)c3cc(O)ccc3n2C)c(C(=O)Nc2ccccc2)c2cc(O)ccc21 | 185 to 187
7 | CCCC(=O)c1cnc2c(CO)cccc2c1Nc1ccc(F)cc1C | 168 to 170
8 | O=C(O)CCc1ccc(CCNC(=O)C2Cc3ccccc3N2S(=O)(=O)c2ccc(-c3cccc(C(F)(F)F)c3)cc2)cc1 (stereo not given) | 86
9 | Cc1[nH]cnc1C(c1ccccc1)c1ccccc1 | 198 to 204
10 | N#CN1CCC(c2nn(-c3ccc(F)cc3)c3ccccc23)CC1 | 108 to 110
11 | CN1CCN(c2nc3c(c(N4CCOCC4)n2)SCCC3)CC1 | 100
12 | COc1ccc(-c2nc3scc(-c4cc(C(C)(C)C)c(O)c(C(C)(C)C)c4)n3c2-c2ccc(OC)cc2)cc1 | 236 to 237
13 | O=[N+]([O-])c1ccc2c(c1)NCc1ccccc1O2 | 154 to 156
14 | CCOC(=O)C(=CNc1ccc(OCC)c(C)n1)C(=O)OCC | 132 to 138
15 | O=C1CCCn2c1cc1ccccc12 | 138 to 140
16 | C=Cc1c(C(C)C)nc(C(C)C)c(CCCCC)c1-c1ccc(F)cc1 | 44 to 46
17 | O=C(CN1CC(O)CC1=O)Oc1ccc(Cl)c(Cl)c1Cl (stereo not given) | 84 to 86
18 | FC(F)(F)c1cc(Sc2ccc(Cl)cc2)c(-c2ccc(Cl)cc2)[nH]1 | 39 to 54
19 | O=C1CCc2cc(Cl)ccc2C1 | 121 to 122
20 | COc1ccc(C=C2C(=O)C3(C)CCC2C3(C)C)cc1OC (stereo not given) | 107
21 | COc1ccccc1N1CCN(S(=O)(=O)c2ccc([N+](=O)[O-])cc2)CC1 | 202 to 204
22 | CC(C)c1cccc(-n2c(C(=O)Nc3ccc4c(ccn4C)c3)cc3cc(OC(F)(F)F)ccc32)c1 | 164 to 165

Row | Compound | melting point [°C]
23 | CCCCCCCCCCCCCCCCOc1cc(NS(=O)(=O)c2cc(N)ccc2OCCOC)c(O)cc1C | 142 to 144
24 | CC(C)(C)C(=O)C(Oc1cccc(Cl)n1)n1cncn1 (stereo not given) | 103 to 105
25 | Cc1ccc(C2=NNC(=O)C3CC23)cc1 (stereo not given) | 162 to 164
26 | CCCCC1=NC2(CCCC2)C(=O)N1Cc1ccc(-c2ccccc2S(=O)(=O)Nc2noc(C)c2C)c(CN2CCCC2=O)c1 | 97 to 103
27 | COc1cc([N+](=O)[O-])ccc1-c1ccccc1 | 71
28 | CC(C)=CCc1cc(C2CCc3ccc(O)cc3O2)ccc1O (stereo not given) | 116 to 117
29 | O=C1CCc2cc(NCC(=O)N3CCC(Cc4ccccc4)CC3)ccc2N1 | 184 to 187
30 | COc1ccc2c(c1OC)CC=C2c1c[nH]cn1 | 150
31 | CCc1c(C)nc2n1N=C(c1ccc(N)cc1)c1cc3c(cc1C2)OCO3 | 227 to 228
32 | CCOC(=O)c1ccc(NCCC(c2ccc(Cl)cc2)c2ccc(Cl)cc2)cc1 | 112 to 117
33 | CCOC(=O)C1C(C#N)C1(C)C (stereo not given) | 69
34 | O=C(O)Cc1nc(-c2ccc(Cl)c(Cl)c2)oc1-c1ccoc1 | 222 to 223
35 | Nc1c(C(=O)c2cccc(Cl)c2)[nH]c2cc(Cl)ccc12 | 99 to 102
36 | CCCCN(c1c([O-])[c+](N(CCCC)C2CC(C)(C)NC(C)(C)C2)[c+]1[O-])C1CC(C)(C)NC(C)(C)C1 | 151 to 152
37 | Nc1nnc2c3c(c(N4CCOCC4)nn12)CCCC3 | 260 to 262
38 | Cc1cc2c(cc1C)CC(C)NC(=O)C2 (stereo not given) | 226 to 227
39 | O=C1c2c(O)ccc(O)c2C(=O)c2c(NCCN3CCOC34CCCCC4)ccc(NCCN3CCOC34CCCCC4)c21 | 218 to 225
40 | Cc1n[nH]c(-c2ccc(F)cc2)c1-c1ccc2c(c1)NC(=O)CO2 | 295 to 298
41 | COc1ccccc1P1(=O)c2ccccc2CN1c1ccccc1 (stereo not given) | 189 to 191
42 | O=c1cc(-c2nnn[nH]2)oc2c(COc3ccc(OCc4ccc5ccccc5n4)cc3)cccc12 | > 250
43 | CCOC(=O)c1cnn(-c2c(F)c(F)c(C(F)(F)F)c(F)c2F)c1N | 166 to 168

Next, values leading:

Row | melting point [°C] | Compound
44 | 68 | Nc1cccc(OCc2ccccc2)c1N
45 | 114 to 115 | O=S(=O)(Nc1cccc(CCOCc2ccc(-c3ccc(OC(F)(F)F)cc3)cc2F)c1)C(F)(F)F
46 | 210 | N=C(N)NCCCc1cc[nH]n1
47 | 167 to 170 | CC(C)(C)OC(=O)NN(C(=O)c1ccccc1)C(C)(C)C
48 | 118 to 122 | N#CC1(c2cccs2)CC1
49 | 231 | CCOc1cc(-c2cc(C(F)F)n3ncc(C(=O)Nc4cccc(S(=O)(=O)N5CCOCC5)c4)c3n2)ccc1C(F)(F)F
50 | 170 to 172 | Cc1ccc(OCC(=O)O)c(I)n1
51 | 122 to 123 | COc1ccccc1Oc1c(Cl)nc(-c2ccccn2)nc1NS(=O)(=O)c1ccc(C(C)(C)C)cc1
52 | 132 to 133 | CCCCc1nc2cc(Cl)cc(C(=O)OC)c2n1Cc1ccc(-c2ccccc2-c2nnn[nH]2)cc1
53 | 160 to 161 | Cc1cccc2c1N=C(Cl)c1cscc1O2
54 | 218 to 220 | O=C(O)C(Cc1n[nH]c2ccccc12)NC(=O)C(CS)C(F)(F)F (stereo not given)
55 | 115 to 116 | O=c1ccoc(C(OC2CCCCO2)c2ccccc2)c1OCc1ccccc1 (stereo not given)
56 | 154 to 156 | O=[N+]([O-])c1ccc2c(-n3ccnc3)nnc(NCc3ccc4c(c3)OCO4)c2c1
57 | 277 to 279 | CCn1nc2c(N)nc3cnccc3c2c1CC(C)(C)O
58 | 120 to 121 | COC1=C(OC)C(=O)c2c(Cl)cccc2C1=O
59 | 168 to 170 | Cc1nnc(C=Cc2ccccc2OCC(O)CCl)s1 (stereo not given)
60 | 115 to 117 | Nc1cccc(OCCCN2CCC(c3noc4cc(F)ccc34)CC2)c1
61 | 174 to 175 | Oc1ccc2ccc(C(O)C(F)(F)F)cc2c1 (stereo not given)
62 | 136 | CS(=O)(=O)n1ccc(-c2ccc(Oc3ccccc3)cc2)n1

Row | melting point [°C] | Compound
63 | 81 to 83 | CCOC(=O)[C@H](C)Nc1c(C)cc(C)cc1C
64 | 176 | CN1CCN(c2ccc3nc(N)c(C#N)c(NCc4ccccc4)c3c2)CC1
65 | 231 to 233 | O=c1[nH]c2c(cc1-c1nc(-c3ccccc3)no1)CN(Cc1ccccc1)CC2
66 | 204 to 205 | Cc1ccc(NC(=O)c2ccc(CN3C[C@@H](C)N[C@@H](C)C3)c(Br)c2)cc1Nc1nccc(-c2cccnc2)n1
67 | 218 to 221 | O=C(Cc1ccc(O)cc1)Nc1c(-c2cc(Cl)ccc2O)c2cc(C(F)(F)F)ccc2[nH]c1=O
68 | 186 to 188 | COc1ccc(-n2nc(Sc3ccc(C(C)(C)C)cc3)c(C)c(C#N)c2=O)cc1
69 | 109 to 111 | CC(=O)CCCn1c(=O)c2c(ncn2C)n(C)c1=O
70 | 185 to 187 | Nc1ncnc2c1c(-c1ccc(Oc3ccccc3C=O)cc1)cn2C1CCOC1 (stereo not given)
71 | 56 to 58 | COc1c(SCc2ccco2)ccnc1CO
72 | > 280 | CS(=O)(=O)N1CCC(C2=C(C#N)C(c3cccc(C#N)c3Br)c3c[nH]nc3N2)CC1 (stereo not given)
73 | 186 to 188 | CCOCc1nc2c(N)nc3cc(OCc4ccc(C(F)(F)F)o4)ccc3c2n1CC(C)(C)NS(C)(=O)=O
74 | 66 to 68 | CC1Cc2cc(F)c(F)cc2C1=O (stereo not given)
75 | 74 to 76 | CCCCN(c1nc(N(CC)CC)nc(N(CCCC)C2CC(C)(C)NC(C)(C)C2)n1)C1CC(C)(C)NC(C)(C)C1
76 | 177 | CC(=O)Nc1ccc(-c2cc(C(=O)c3ccc(S(C)(=O)=O)cc3)sc2N2CCOCC2)cc1
77 | 93 to 94 | Cc1ccc(-c2nc(CCl)co2)o1
78 | 223 to 224 | COc1cc2nc(N(C)C)nc(N)c2cc1OC
79 | 45.8 | COC(OC)C(=O)NCc1ccc(C)cc1
80 | 234 to 235 | Cc1cccc(C(=O)NC(Nc2c(Nc3cccnc3)c(=O)c2=O)C(C)(C)Cc2ccccc2)c1 (stereo not given)
81 | 151 to 152 | CCCc1cc(C(O)=S)cc(N)c1Cc1ccccc1

Row | melting point [°C] | Compound
82 | 188 to 189 | Cc1ccc(C(=O)NC(NC(=NC#N)Nc2cccnc2)C(C)(C)C)cc1 (single isomer, unassigned; (+))
83 | 120 to 122 | COC(=O)c1cc(O)cc(OCCCOc2ccc(OCc3ccccc3)cc2)c1
84 | 144 to 146 | Cc1oc(COc2ccc(/C=C/C=O)cc2)nc1-c1ccccc1
85 | 136 to 138 | Cc1c(C(=O)OCc2ccccc2)sc(NC(=O)C(F)(F)F)c1C(=O)OC(C)(C)C
86 | 73.8 to 77.9 | CCc1nc2c(OCc3ccc(OC)cc3)cccc2[nH]1
87 | 113 | COc1ccc(CNc2ccc(C#N)cc2F)cc1
88 | 182 to 183 | Cc1nnc(Cl)c(-c2c(F)cc(F)cc2F)c1-c1ccc(Cl)nc1
89 | 165 to 166 | CC(=O)NCc1ccc(CN2CCN(c3cc(Cl)nc(Cl)n3)CC2)cc1
90 | 118 to 119 | c1ccc(SC2CCN(C(c3ccccc3)c3ccccc3)CC2)cc1
91 | > 300 | Cc1cc2n(C)c3ccncc3c(=O)n2n1
92 | 83 to 85 | N#CC(=Cc1ccc(Cl)cc1)c1c(Cl)cc(N2N=CCNC2=O)cc1Cl
93 | 154 to 155 | Cc1c(C)c2c(c(C)c1OCc1ccccc1)CCC(C)(C(=O)O)O2 (stereo not given)
94 | 139 to 140 | Cc1ncsc1C(C)(O)c1cc2ccccc2o1 (stereo not given)
95 | 138 to 139 | COC(c1ccc(NC(=O)c2c(C(F)(F)F)nn(C)c2C)cc1CC(C)C)(C(F)(F)F)C(F)(F)F
96 | 110 to 112 | CCN(C(=O)OC(C)(C)C)C1CC=C(c2c[nH]c3cc(NC(=N)c4cccs4)ccc23)CC1 (stereo not given)
97 | 156 | CC1(OCC(F)(F)F)C=NC(c2cc(-c3ccc(S(C)(=O)=O)cc3)c(N3CCOCC3)s2)=CC1 (stereo not given)
98 | 130 to 132 | O=C1NC(=O)C(c2cccc3ccsc23)O1 (stereo not given)
99 | 188 to 193 | COCCOc1cc2ncc(C#N)c(C)c2cc1OC
100 | 117 to 118 | COc1ccc(C(=O)c2ccncc2)cc1OC
